The term pGI50 denotes −log10 of the GI50, conventionally taken in molar units.

The data set concerns Tetrahymena pyriformis. Kind of data set: Toxicity in Tetrahymena pyriformis. As to conditions: in vivo.
`CC(O)CCl` (stereo not given) came in with a negative-log GI50 (pGI50) of 1.2446.

In turn, `OCCCl` [2-CHLOROETHANOL] came in with a negative logarithm of the GI50 (pGI50) of 1.5343. Regarding `CCCC(C)O` (stereo not given) [2-PENTANOL], the negative-log GI50 (pGI50) worked out at 1.1596. The result for `OCCCCl` [3-Chloropropanol] reads 1.1622; that for `CC(C)CCO` [3-METHYLBUTANOL], 1.0359. Regarding `CCC(O)CC` [3-PENTANOL], the negative-log GI50 (pGI50) was found to be 1.2437. The result for `CCO` [ALCOHOL] reads 1.9912; that for `CCC(C)(C)O` [AMYLENE HYDRATE], 1.1729. The compound `CCC(C)O` (stereo not given) [BUTANOL] came in with a negative logarithm of the GI50 (pGI50) of 1.542. The result for `CCCCO` [BUTYL ALCOHOL] reads 1.4306; that for `CC(C)CO` [ISOBUTANOL], 1.3724.

In turn, `CC(C)O` [ISOPROPYL ALCOHOL] showed a pGI50 of 1.8819. The figure for `CO` [METHYL ALCOHOL] is 2.6656; for `CCCO` [PROPANOL] it is 1.7464.

Regarding `CC(C)(C)O` [TERT-BUTANOL], the negative-log GI50 (pGI50) was 1.7911.
